Assay results from patent US20100120690A1, “Polypeptides Having Antimicrobial Activity and Polynucleotides Encoding Same” (Novozymes Adenium Biotech A/S, priority 2005, published 2010).

Columns and labels:
B. subtilis [1] = test: Minimal Inhibitory Concentration, NCCLS guidelines (Example 4); type: cell-based, Bacillus subtilis; conditions: purified peptide
Experimental: (§1) The Minimal Inhibitory Concentration (MIC, micrograms/mL) was determined to test for their antimicrobial activity following the NCCLS guidelines (Clinical and Laboratory Standards Institute; formerly known as National Committee for Clinical and Laboratory Standards).

[2] = system: panel of 6 different strains of Staphylococcus aureus; test: Average MIC, NCCLS/CLSI guidelines using caMHB (Example 6); type: cell-based; conditions: average over 6 S. aureus strains, duplicate; MIC above 32 counted as 64; read after 18-24 hours at 37° C.
In short: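 MICs were determined by broth dilution per NCCLS/CLSI in caMHB against six S. aureus strains (four MSSA, two MRSA), with peptides at 0.03–32 microgram/mL, read after 18-24 h at 37° C. Each was tested in duplicate and the two results averaged; MICs above 32 micrograms/mL were counted as 64.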

Staphylococcus carnosus = test: TAPS (Trans Acting Peptide System) assay, radial diffusion read-out; type: cell-based; parameters: key: classified as 4>3>2>1; whereas 4 is better than 1; classified as 4>3>2>1; classified as 4>3>2>1; wildtype activity corresponds to 1; conditions: peptide expressed in E. coli
Experimental: A range of antimicrobial polypeptides, which are variants of SEQ ID NO: 1, were tested in the TAPS assay. TAPS may be used to identify new or improved genes encoding peptides that can kill or inhibit the growth of target cells (see PCT application WO 2004/033715). The TAPS assay, an acronym for Trans Acting Peptide System, is based on having a sensitive host producing a peptide followed by screening for its activity in trans against an indicator strain. The advantage of this system is based on that the antimicrobial peptide is expressed in the Gram-negative bacterium E. coli and its antimicrobial activity can be monitored on different microbes including Gram-negatives, positives or fungi. Additionally, TAPS offers the possibility to produce correctly folded AMPs containing disulfide bonds in the host cells, thereby retaining their antimicrobial activities.
The TAPS approach requires first, that expression of the peptide is under control of an inducible promoter with tight regulation, because the host cells are sensitive to the peptide when producing it. Secondly, the produced peptide has to be released to the media so that it can interact with the target organism.
The TAPS screening can be carried out either in solid or liquid media. On solid media, a plasmid library is initially introduced into E. coli host cells. […] In the next step, the filter containing the colonies is transferred to LB growth medium containing inducer (0.1% arabinose) to permit peptide synthesis. Subsequently, the target strain, for example S. carnosus, is overlaid onto the plate and allowed to grow for 12-16 hours at 37° C. Finally, visual inspection of the host cells capable of reducing the proliferation of the target cells is performed and the nucleotide sequence encoding for the antimicrobial peptide is recovered from the host cells. DNA sequence analysis of the variants is obtained to elucidate the nature of the peptide.
As mentioned above, the TAPS screening can also be performed using liquid medium. This procedure requires the use of robotics to analyze large number of clones. In this system, the host E. coli origami cells are transformed with the plasmid library and plated out on LB medium+0.2% glucose+ampicillin (200 mg/L). Independent colonies are then inoculated into 96 or 384-well plates containing 200 micro-L of TB medium+ampicillin (200 mg/L) and cultured overnight at 37° C. These cultures are then replicated robotically and grown to exponential phase until inducer (0.1% arabinose) is added to trigger peptide synthesis. The next step consists in hydrolyzing the cells such that the peptide is released to the media by hot acid hydrolysis. This treatment consists on adding 1 M sodium Phosphate buffer pH 2.3 to obtain a final pH approximately of 2.3 and incubating the cultures overnight at 80° C. Next day, a 25 micro-L aliquot of the hydrolyzed cultures is used to perform an activity test against the desired target organisms. The activity test performed was a Radial Diffusion Assay (RDA) where an aliquot of the hydrolyzed cultures was added to the agarose media inoculated with the target strain, S. carnosus. […] Measurements of the diameter of the clearing zones were performed to quantify the potency of the antimicrobial activity of the peptides.
The antimicrobial activity (against Staphylococcus carnosus) of the tested plectasin variants, which was measured using the TAPS assay, is shown in table 3. The antimicrobial activity corresponds to the clearing zone size and has been classified as 4>3>2>1; whereas 4 is better than 1, and wildtype activity corresponds to 1.

M. luteus [3] = test: Minimal Inhibitory Concentration, NCCLS guidelines (Example 4); type: cell-based, Micrococcus luteus; conditions: purified peptide
Experimental: as §1

S. aureus = test: as above; type: cell-based, Staphylococcus aureus; conditions: purified peptide
Experimental: as §1

[4] = system: Staphylococcus aureus, ATCC 29213; test: MIC, NCCLS/CLSI guidelines (Example 5), strain A; type: cell-based; conditions: relative to wildtype Plectasin; average of two independent experiments
In short: (§2)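 Recombinant plectasin variants, expressed and purified; MIC per NCCLS/CLSI; n=2 independent expts, averaged; reported as category vs wild-type MIC (0 >100%, 1 80-100%, 2 50-80%, 3 <50%).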

[5] = system: Staphylococcus aureus, ATCC 25923; test: MIC, NCCLS/CLSI guidelines (Example 5), strain B; type: cell-based; conditions: relative to wildtype Plectasin; average of two independent experiments
In short: as §2

[6] = system: Staphylococcus aureus, MRSA ST5 (2001); test: MIC, NCCLS/CLSI guidelines (Example 5), strain D; type: cell-based; conditions: relative to wildtype Plectasin; average of two independent experiments
In short: (§3)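 Purified Plectasin variants were tested for MIC per NCCLS/CLSI guidelines; strains D and E are multi-resistant clinical human MRSA isolates. MICs average two independent experiments and are scored relative to wild-type Plectasin MIC: 0 >100%, 1 80-100%, 2 50-80%, 3 <50%.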

[7] = system: Staphylococcus aureus, ATCC 29737; test: MIC, NCCLS/CLSI guidelines (Example 5), strain C; type: cell-based; conditions: relative to wildtype Plectasin; average of two independent experiments
In short: as §2

[8] = system: Staphylococcus aureus, MRSA ST80 (2003); test: MIC, NCCLS/CLSI guidelines (Example 5), strain E; type: cell-based; conditions: relative to wildtype Plectasin; average of two independent experiments
In short: as §3

S. epidermis = test: Minimal Effective Concentration (MEC) assay; type: cell-based, Staphylococcus epidermidis
Experimental: (§4) Three antimicrobial polypeptides, which are variants of SEQ ID NO: 1, were tested for antimicrobial activity. A Minimal Effective Concentration assay (MEC, expressed as micrograms/mL) against different microorganisms was performed using the three plectasin mutants, Y40YR, N17R and Y25R following the protocol described in the book of Methods in Molecular Biology, Vol. 78, Antibacterial peptide protocol William M. Shafer, Human Press.

M. luteus [9] = test: Minimal Effective Concentration (MEC) assay; type: cell-based, Micrococcus luteus
Experimental: as §4

B. subtilis [10] = test: Minimal Effective Concentration (MEC) assay; type: cell-based, Bacillus subtilis
Experimental: as §4

Substance | MIC against B. subtilis (B. subtilis [1]) [micrograms/mL] | Average MIC [2] [micrograms/mL] | Activity (antimicrobial activity, clearing zone size) (Staphylococcus carnosus) | MIC against M. luteus (M. luteus [3]) [micrograms/mL] | MIC against S. aureus (S. aureus) [micrograms/mL] | Relative MIC, strain A [4] | Relative MIC, strain B [5] | Relative MIC, strain D [6] | Relative MIC, strain C [7] | Relative MIC, strain E [8] | MEC against S. epidermis (S. epidermis) [micrograms/mL] | MEC against M. luteus (M. luteus [9]) [micrograms/mL] | MEC against B. subtilis (B. subtilis [10]) [micrograms/mL]
GFGCNGPWDEGDMQCHNHCKSIKGYRGGYCAKGGFVCKCY [D11G + K26R] | 0.50 | 11 | 2 | 8 | 2 | – | – | – | – | – | – | – | –
GFGCNGPWDEDDKQCHNHCKSIKGYKGGYCAKGGFVCKCYR [M13K + Y40YR] | 0.25 | 12 | 4 | 2 | 2 | – | – | – | – | – | – | – | –
GFGCNGPWDEGDMQCHNHCKSIKGYRGGYCAKGGFVCKCYR (Synthetic antimicrobial polypeptide) [D11G + K26R + Y40YR] | 0.06 | 9 | 4 | 0.25 | 0.50 | 3 (<50% of Plectasin wildtype MIC) | 3 (<50% of Plectasin wildtype MIC) | 3 (<50% of Plectasin wildtype MIC) | 3 (<50% of Plectasin wildtype MIC) | – | – | – | –
GFGCNGPWDEDDMRCHNHCKSIKGYKGGYCAKGGFVCKCY [Mutation Q14R] | – | 5 | 4 | – | – | 2 (50-80% of Plectasin wildtype MIC) | 3 (<50% of Plectasin wildtype MIC) | 3 (<50% of Plectasin wildtype MIC) | 3 (<50% of Plectasin wildtype MIC) | 0 (>100% of Plectasin wildtype MIC) | – | – | –
GFGCNGPWDEDDMQCHRHCKSIKGYKGGYCAKGGFVCKCY [Mutation N17R] | – | 4 | 2 | – | – | – | 3 (<50% of Plectasin wildtype MIC) | 3 (<50% of Plectasin wildtype MIC) | 3 (<50% of Plectasin wildtype MIC) | 2 (50-80% of Plectasin wildtype MIC) | 0.59 | 0.32 | 0.07
GFGCNGPWDEDDMQCHNHCKSIKGYKGGYCAKGGFVCKCYR [Mutation Y40YR] | – | – | 2 | – | – | – | – | – | – | – | 0.31 | 0.18 | 0.05
GFGCNGPWDEDDKQCHNHCKSIKGYKGGYCAKGGFVCRCY [M13K + K38R] | – | 6 | 4 | – | – | 1 (80-100% of Plectasin wildtype MIC) | 3 (<50% of Plectasin wildtype MIC) | 2 (50-80% of Plectasin wildtype MIC) | 3 (<50% of Plectasin wildtype MIC) | 3 (<50% of Plectasin wildtype MIC) | – | – | –
GFGCNGPWDEGDKQCHNHCKSIKGYRGGYCAKGGFVCKCYR [D11G + M13K + K26R + Y40YR] | <0.03 | 12 | 4 | 0.50 | 0.50 | – | – | – | – | – | – | – | –
Y25R (GFGCNGPWDEDDMQCHNHCKSIKGRKGGYCAKGGFVCKCY) [Mutation Y25R] | – | – | – | – | – | – | – | – | – | – | – | 1.40 | 0.04
Q14K + K26R: variant of Plectasin (SEQ ID NO: 1) (GFGCNGPWDEDDMKCHNHCKSIKGYRGGYCAKGGFVCKCY) | 0.13 | 6 | – | 1 | 2 | 3 (<50% of Plectasin wildtype MIC) | 2 (50-80% of Plectasin wildtype MIC) | 3 (<50% of Plectasin wildtype MIC) | 3 (<50% of Plectasin wildtype MIC) | 3 (<50% of Plectasin wildtype MIC) | – | – | –
